Legend:
[1] = Fluorescence of the iFRET probe alone; assay type: physicochemical
From the text: After excitation at 260, 280, 340, and 360 nm, the emitted fluorescence spectra were examined. […]
(§1) As in FIG. 23 showing the result of using the compound of Chemical Formula XXV as a probe for iFRET, the probe itself emitted low fluorescence (blue line) at 430 nm by UV irradiation at 280 nm; the protein (streptavidin) emitted fluorescence (green line) at 340 nm by UV irradiation at 280 nm.
As in FIG. 24 showing the result of using the compound of Chemical Formula XXVI as a fluorescent probe, the probe itself emitted low fluorescence (blue line) at 460 nm by UV irradiation at 280 nm; the protein (streptavidin) emitted fluorescence (green line) at 340 nm by UV irradiation at 280. […] Further, it was confirmed that the fluorescence increasing rate at the above emission wavelength was 600% or more, indicating production of effective iFRET signals. […]

[2] = test system: HSP90 (heat shock protein 90) protein; experiment: iFRET detection of HSP90 with probe XXIV; assay type: binding
Procedure: Compound XXIV was dissolved in DMSO, and then diluted with distilled water to a final concentration of 2 μM. When Compound XXIV or the protein was present alone, no fluorescence signals were newly observed around 450 nm.
(§2) The right graph of FIG. 18 is the result of reexamining iFRET signals using Compound XXIV, purified HSP90 protein, and a control group BSA (bovine serum albumin). 2 μM Compound XXIV was used, and HSP90 protein and BSA protein were used at the final concentration of 200 nM. At this time, the used buffer was phosphate buffered saline (PBS; pH 7.4). As shown in the figure, iFRET signals result from compound XXIV and HSP90 protein which are selectively binding.
FIG. 19 is a graph showing iFRET signals detected by using HSP90 protein and Chemical Formula XXIV Selectively binding thereto.
(§3) As a control group, BSA (bovine serum albumin) was used.

[3] = target: BSA (bovine serum albumin) (Bos taurus, UniProt P02769); experiment: iFRET control of probe XXIV with BSA; assay type: binding; settings: probe (2 μM) with BSA (200 nM), PBS pH 7.4
BSA (bovine serum albumin), sequence (P02769 25-607): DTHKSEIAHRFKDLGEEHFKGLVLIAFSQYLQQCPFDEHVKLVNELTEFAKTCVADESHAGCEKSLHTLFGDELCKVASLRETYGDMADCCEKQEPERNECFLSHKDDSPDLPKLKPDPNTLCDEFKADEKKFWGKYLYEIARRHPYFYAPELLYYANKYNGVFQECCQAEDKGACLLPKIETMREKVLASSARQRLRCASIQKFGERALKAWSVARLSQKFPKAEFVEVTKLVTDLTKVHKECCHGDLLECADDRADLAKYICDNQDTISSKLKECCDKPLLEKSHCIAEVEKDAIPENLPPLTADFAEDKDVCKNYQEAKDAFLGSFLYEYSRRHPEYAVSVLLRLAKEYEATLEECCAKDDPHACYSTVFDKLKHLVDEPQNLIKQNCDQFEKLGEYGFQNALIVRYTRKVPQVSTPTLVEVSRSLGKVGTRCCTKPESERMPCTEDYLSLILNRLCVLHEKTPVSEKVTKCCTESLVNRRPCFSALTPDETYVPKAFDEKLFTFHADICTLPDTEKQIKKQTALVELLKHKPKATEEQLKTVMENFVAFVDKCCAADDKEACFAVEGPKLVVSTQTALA
Procedure: as §2, §3

HSP90 protein = experiment: Dissociation constant of iFRET probe and HSP90 (double reciprocal plot of fluorescence); assay type: binding; settings: probe concentration fixed, HSP90 at various concentrations
Procedure: FIG. 21 is the result of binding degree of the synthesized Chemical Formula XXIV and HSP90 protein. The core structure used in the synthesis of Chemical Formula XXIV is PU-H64 (J. Med. Chem. 2006, 49, 4953-4960), and this structure binds to HSP90. The iFRET probe used in this experiment is a structure in which a fluorescent nucleus is introduced into PU-H64. In order to examine the actual binding degree of this probe and HSP90 protein, analysis of enzyme kinetics was performed to confirm that its dissociation constant is approximately 160 nM. The concentration of Chemical Formula XXIV as the iFRET probe was fixed and HSP90 was reacted at various concentrations to measure emitted fluorescence intensity. Based on this measured values, the dissociation constant was calculated. The reciprocal of the HSP90 concentration and the reciprocal of the fluorescence value were plotted to calculate the dissociation constant.

BSA = BSA (Bos taurus, UniProt P02769); experiment: Target specificity of probe XXVIII against BSA; assay type: binding; settings: probe exposed to BSA
BSA, sequence (P02769 25-607): as above
From the text: (§4) In order to examine target specificity of the probe having Chemical Formula XXVIII, the probe was exposed to BSA to examine whether iFRET signals were produced by binding of the probe to BSA. […] Therefore, it was confirmed that the biotin-conjugated iFRET fluorescent probe of the present invention selectively binds to streptavidin to produce iFRET signals.

[4] = Quantum yield measurement; assay type: physicochemical; settings: 0.1 M pH 10.0 phosphate buffer, standard 4-methyl-umbelliferone
Procedure: (§5) The quantum yield of each compound was measured in 0.1 M pH 10.0 phosphate buffer. 4-methyl-umbelliferone (ΦF 0.63) was used as a standard material, tryptophan (ΦF=0.12) was used as an FRET donor to calculate the quantum yield. FRET efficiency was calculated based on the results measured in PBS buffer at pH 7.4, and fluorescence was measured using an LS55 fluorescence spectrometer manufactured by Perkin Elmer.

streptavidin [5] = target: T1, streptavidin (Streptomyces avidinii, UniProt P22629); experiment: iFRET detection of streptavidin with biotin-conjugated probes; assay type: binding; settings: UV irradiation at 280 nm
From the text: The results of detecting streptavidin using Compounds of Chemical Formulae XXV to XXVIII as probes for iFRET are shown in FIGS. 23 to 26.
as §1
As in FIG. 24 showing the result of using the compound of Chemical Formula XXVI as a fluorescent probe, the probe itself emitted low fluorescence (blue line) at 460 nm by UV irradiation at 280 nm; the protein (streptavidin) emitted fluorescence (green line) at 340 nm by UV irradiation at 280. […] Further, it was confirmed that the fluorescence increasing rate at the above emission wavelength was 600% or more, indicating production of effective iFRET signals.
Because the compound of Chemical Formula XXVII emitted fluorescence at the longer wavelength than the known iFRET probe, signal-to-noise ratio is […] during real-time cell imaging, thereby providing more clear images.
as §4

streptavidin [6] = target: T1, streptavidin; experiment: FRET efficiency and Forster distance of biotin-conjugated probes; assay type: binding; settings: between iFRET probe and streptavidin
Procedure: as §5

fluorescence emission wavelength of probe alone ([1]; excitation / UV irradiation at 280 nm) | fluorescence intensity on excitation at 340 nm compared to excitation at 280 nm ([1]; probe alone) | iFRET signals [3] | Kd (HSP90 protein) | Structure (SMILES) | iFRET signal around 450 nm ([2]; 2 μM probe with purified HSP90, DMSO diluted with distilled water) | fluorescence at 430 nm of mixture ([2]; mixture of probe and HSP90, excitation at 280 nm, versus HSP90 or probe alone) | iFRET signals (BSA) | Quantum yield (ΦF) [4] | fluorescence / iFRET signal of mixture of probe and streptavidin (streptavidin [5]) | R0 (Fōrster distance) (streptavidin [6])
approximately 430 nm | approximately 2 fold | no iFRET signals | ~160 nM | Nc1ncnc2c1nc(Sc1cc3c(cc1Br)OCO3)n2CCC(=O)NCCNc1cccc2ccccc12 [Chemical Formula XXIV, 3-(6-amino-8-(6-bromobenzo[1,3]-dioxole-5-ylthio)-9S-purin-9-yl)-N-(2-(naphthalene-1-ylamino)ethyl)propaneamide] | new fluorescence signals were observed | increased fluorescence |  |  |  | 
 |  |  |  | CN(C)c1ccc2cc(/C=C/C(=O)NCCNC(=O)CCCC[C@@H]3SC[C@@H]4NC(=O)N[C@@H]43)c(=O)oc2c1 [Chemical Formula XXVIII, N-((E)-7-dimethylaminocoumarin-3-acryl)-N′-(biotinyl)ethylenediamide] |  |  | no signals were observed | 0.55 | iFRET signals produced | 2.102 nm
